Experimental data as given in patent US20240376555A1, “TNRA MODIFICATION-SENSITIVE CODON TRANSLATION ASSAY COMPRISING LUMINESCENCE-BASED REPORTER SYSTEM” (priority 2021, published 2024).
“Also recorded” adds a separate entry of the source.

How the values were obtained:
U34 enzymes [1] = test: Dual luciferase (NanoLuc/Firefly) tRNA modification-sensitive codon translation assay in M395 cells; format: cell-based; details: M395 human primary melanoma cells; 250 nM for 24 hours; six U34 codon (xAA) repeats upstream of NanoLuc, xAG upstream of FireflyLuc; FIG. 1f
Method: (§1) In the preferred embodiment, the luminescence-based reporter system is the Nano-Glo® Dual-Luciferase® Reporter (NanoDLR™) Assay System commercially available from Promega. The medium may be removed and 40 microliters of complete cell culture medium may be added. The plate may be equilibrated at room temperature for 15 min. 40 microliters of ONE-Glo™ EX Reagent may be added for each well. The plates may be mixed and shaked and protected from light for 10 minutes. Then the luminescence may be read. 40 microliters of NanoDLR™ Stop and GloR Reagent may be freshly prepared and added to each well. The plates may be mixed and shaked and protected from light for 10 minutes. The luminescence may be read by any luminescence reader, preferably. The luminescence may be analyzed by calculating the Nanoluc/Firefly ratio.
(§2) Cells (MDA-MB231, M395 or A549) were stably transduced by the lentiviral system (pLV-Puro-hPGK) and 1:3 Mirus transfecting agent [Close et al, Mol Cell 2006].
(§3) Cells were culture in a suitable culture system in the presence of the candidate tRNA modification modulator.
(§4) Signals were detected by any luminescence reader, for example the TECAN Infinite M2000 Pro. Read time can be between 1 and 3 seconds with automatic attenuation.
(§5) No effect was seen using a construct lacking the codon repetitions (FIG. 1e). […]

U34 enzymes [2] = test: Dual luciferase (NanoLuc/Firefly) tRNA modification-sensitive codon translation assay in A549 cells; format: cell-based; details: A549 human lung cells; time and concentration series; six U34 codon (xAA) repeats upstream of NanoLuc, xAG upstream of FireflyLuc; FIG. 1g-h
Method: as §1, §2, §3, §4, §5

Row | Compound | luciferase specific ratio (NanoLuc/Firefly) (U34 enzymes [1]) | luciferase specific signal (U34 enzymes [2])
1 | insulin | increased luciferase specific ratio | –
2 | CC(C)n1nc(-c2cc3cc(O)ccc3[nH]2)c2c(N)ncnc21 [PP242] | – | decreased luciferase specific signal in a time and concentration-dependent manner; also recorded: decreased luciferase specific signal in a time and concentration dependent manner
3 | Cn1c(=O)n(-c2ccc(C(C)(C)C#N)cc2)c2c3cc(-c4cnc5ccccc5c4)ccc3ncc21 [NVP-BEZ235] | – | decreased luciferase specific signal in a time and concentration-dependent manner; also recorded: decreased luciferase specific signal in a time and concentration dependent manner
